In ChEMBL document CHEMBL1125850, “Synthesis of substrate-based inhibitors of HMG CoA reductase” (Bioorg Med Chem Lett, 1991):
Each block holds one molecule with its values, some of them ahead of it. Active and inactive are the calls of the source. The calls are words filed in the database; no cut-off is given here.

How the values were obtained:
Type in all cases: microsomes
Conditions in all cases: Microsome
[1] = molecular target: T1, 3-hydroxy-3-methylglutaryl-coenzyme A reductase (Rattus norvegicus) (UniProt P51639); assay: Inhibition of enzyme activity in a rat hepatic microsomal HMG-CoA reductase at 100 uM; IA means inactive
T1 sequence (whole entry): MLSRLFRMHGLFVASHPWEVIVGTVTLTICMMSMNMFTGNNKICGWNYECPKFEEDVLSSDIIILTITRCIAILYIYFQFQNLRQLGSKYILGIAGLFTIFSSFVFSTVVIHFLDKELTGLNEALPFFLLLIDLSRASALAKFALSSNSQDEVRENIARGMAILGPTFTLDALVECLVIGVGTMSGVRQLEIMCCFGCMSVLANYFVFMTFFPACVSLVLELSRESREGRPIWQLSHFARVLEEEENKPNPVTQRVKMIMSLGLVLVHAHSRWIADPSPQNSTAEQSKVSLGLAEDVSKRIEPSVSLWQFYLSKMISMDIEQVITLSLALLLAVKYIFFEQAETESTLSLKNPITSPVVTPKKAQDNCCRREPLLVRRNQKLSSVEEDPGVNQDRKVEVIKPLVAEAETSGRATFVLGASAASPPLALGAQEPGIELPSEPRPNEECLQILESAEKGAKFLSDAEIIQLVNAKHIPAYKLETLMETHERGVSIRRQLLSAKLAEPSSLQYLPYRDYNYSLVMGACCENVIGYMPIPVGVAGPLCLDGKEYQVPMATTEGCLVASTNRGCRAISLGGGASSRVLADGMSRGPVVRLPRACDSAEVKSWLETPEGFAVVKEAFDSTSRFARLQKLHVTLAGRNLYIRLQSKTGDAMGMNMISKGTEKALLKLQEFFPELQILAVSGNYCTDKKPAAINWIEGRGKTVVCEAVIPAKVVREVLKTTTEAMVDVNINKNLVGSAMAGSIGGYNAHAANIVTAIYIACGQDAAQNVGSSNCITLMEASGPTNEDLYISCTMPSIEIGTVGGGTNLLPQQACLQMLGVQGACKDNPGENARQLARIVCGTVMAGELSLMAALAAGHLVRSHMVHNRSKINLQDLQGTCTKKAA

[2] = molecular target: T1, 3-hydroxy-3-methylglutaryl-coenzyme A reductase (Rattus norvegicus); assay: Inhibition of enzyme activity in a rat hepatic microsomal HMG-CoA reductase at 100 uM
[3] = molecular target: T1, 3-hydroxy-3-methylglutaryl-coenzyme A reductase (Rattus norvegicus); assay: Inhibition of enzyme activity in a rat hepatic microsomal HMG-CoA reductase at 100 uM IA means inactive

Activity [1]: inactive
SMILES: CC(C)[C@@H](O)C(=O)NCCC(=O)NCCSCC(O)CC(O)CC(=O)O (stereo partly drawn)

inhibition [2]: 24%
SMILES: CC(C)[C@@H](O)C(=O)NCCC(=O)NCCSCCC(O)CC(=O)O (stereo partly drawn)

Activity [3]: inactive
SMILES: CC(C)[C@@H](O)C(=O)NCCC(=O)NCCSCC(=O)CC(O)CC(=O)O (stereo partly drawn)
